From US20100311741A1, “Bicyclosulfonyl Acid (BCSA) Compounds and Their Use as Therapeutic Agents” (INHIBOX LTD., priority 2007, published 2010)

Target: T1, Human recombinant TACE enzyme (Homo sapiens, UniProt P78536)
T1 construct: purchased R and D Systems, Abingdon, UK 930-ADB
Assay: TACE assay (fluorescent peptide substrate)
Type: biochemical
Conditions: 3.5 h; single concentration @2 (μM); read-out: Av. TACE Inhibition, % @2
Description: The activity of the compounds as TACE inhibitors was determined using a commercially available peptide substrate (M-2255, Bachem UK Ltd, St. Helens, UK) and recombinant TACE enzyme (930-ADB, R and D Systems, Abingdon, UK). Human recombinant TACE enzyme (5 ng/30 μL) was incubated for 3.5 hour at 37° C. in assay buffer (25 mM Tris.HCl, 2.5 μM ZnCl2, 0.005% Brij 35, pH 8.0) with 5 μM substrate in the presence of test compound (TACE inhibitor). The extent of TACE activity was determined by measurement of the fluorescence (excitation 355 nm, emission 460 nm).
(§1) Percent activity (% activity) for each test compound was calculated as:
(§2) % activity={(S^C−B)/(S^o−B)}×100
(§3) wherein S^C denotes signal measured in the presence of enzyme and the compound being tested, S^o denotes signal measured in the presence of enzyme but in the absence of the compound being tested, and B denotes the background signal measured in the absence of both enzyme and compound being tested. The IC50 corresponds to the concentration which achieves 50% activity.

T1 sequence (P78536 215-671 limits assumed): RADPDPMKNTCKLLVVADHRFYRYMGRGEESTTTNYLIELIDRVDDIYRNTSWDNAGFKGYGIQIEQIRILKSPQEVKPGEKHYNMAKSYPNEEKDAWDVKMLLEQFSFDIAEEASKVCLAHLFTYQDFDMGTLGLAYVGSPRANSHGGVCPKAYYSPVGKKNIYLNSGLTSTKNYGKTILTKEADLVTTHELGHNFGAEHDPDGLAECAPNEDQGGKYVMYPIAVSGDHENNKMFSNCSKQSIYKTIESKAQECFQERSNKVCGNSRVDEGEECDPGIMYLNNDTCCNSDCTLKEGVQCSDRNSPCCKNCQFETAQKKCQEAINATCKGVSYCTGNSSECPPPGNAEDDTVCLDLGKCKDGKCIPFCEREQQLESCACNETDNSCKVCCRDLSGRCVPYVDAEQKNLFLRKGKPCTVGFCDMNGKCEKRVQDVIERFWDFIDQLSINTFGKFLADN

Row | Structure (SMILES) | inhibition at 2 µM
1 | O=C(CC1c2ccccc2S(=O)(=O)N1C1CCN(Cc2ccccc2)CC1)NO (stereo not shown) [IX-044] | 0%
2 | COc1cc2c(c(OC)c1OC)S(=O)(=O)N(c1ccccc1)C2CC(=O)NO (stereo not shown) [IX-071] | 10%
3 | COc1cc(OC)c2c(c1)C(CC(=O)NO)N(c1ccccc1)S2(=O)=O (stereo not shown) [IX-072] | 15%
4 | Cc1ccc2c(c1)S(=O)(=O)N(c1ccccc1)C2CC(=O)NO (stereo not shown) [IX-073] | 32%
5 | O=C(CC1c2ccc(Br)cc2S(=O)(=O)N1c1ccccc1)NO (stereo not shown) [IX-074] | 10%
6 | O=C(CC1c2ccc(-c3ccccc3)cc2S(=O)(=O)N1c1ccccc1)NO (stereo not shown) [IX-079] | 4%
7 | COc1cccc2c1C(CC(=O)NO)N(c1ccccc1)S2(=O)=O (stereo not shown) [IX-082] | 35%
8 | O=C(CC1c2cccc(C(F)(F)F)c2S(=O)(=O)N1c1ccccc1)NO (stereo not shown) [IX-084] | 0%
9 | Cc1cc(F)c2c(c1)C(CC(=O)NO)N(c1ccccc1)S2(=O)=O (stereo not shown) [IX-085] | 57%
10 | O=C(CC1c2c(ccc(F)c2Cl)S(=O)(=O)N1c1ccccc1)NO (stereo not shown) [IX-086] | 20%
11 | O=C(CC1c2cccc(Cl)c2S(=O)(=O)N1c1ccccc1)NO (stereo not shown) [IX-088] | 34%
12 | O=C(CC1c2c(Cl)cc(Cl)cc2S(=O)(=O)N1c1ccccc1)NO (stereo not shown) [IX-089] | 0%
13 | O=C(CC1c2ccc(C(F)(F)F)cc2S(=O)(=O)N1c1ccccc1)NO (stereo not shown) [IX-090] | 10%
14 | COc1cccc2c1S(=O)(=O)N(c1ccccc1)C2CC(=O)NO (stereo not shown) [IX-091] | 13%
15 | COc1cc(Cl)cc2c1S(=O)(=O)N(c1ccccc1)C2CC(=O)NO (stereo not shown) [IX-092] | 23%
16 | COc1ccc2c(c1Cl)C(CC(=O)NO)N(c1ccccc1)S2(=O)=O (stereo not shown) [IX-093] | 29%

Same assay, conditions: 3.5 h; single concentration @100 (μM); read-out: Av. TACE Inhibition, % @100

Row | Structure (SMILES) | inhibition at 100 µM
17 | COc1ccccc1N1C(CC(=O)NO)c2ccccc2S1(=O)=O (stereo not shown) [IX-008] | 50%
18 | COc1cccc(N2C(CC(=O)NO)c3ccccc3S2(=O)=O)c1 (stereo not shown) [IX-009] | 52%
19 | O=C(CC1c2ccccc2S(=O)(=O)N1c1cccc(Oc2ccccc2)c1)NO (stereo not shown) [IX-011] | 86%
20 | CSc1cccc(N2C(CC(=O)NO)c3ccccc3S2(=O)=O)c1 (stereo not shown) [IX-013] | 93%
21 | O=C(CC1c2ccccc2S(=O)(=O)N1c1cccc(C(F)(F)F)c1)NO (stereo not shown) [IX-014] | 81%
22 | O=C(CC1c2ccccc2S(=O)(=O)N1c1cccc(OC(F)(F)F)c1)NO (stereo not shown) [IX-015] | 54%
23 | O=C(CC1c2ccccc2S(=O)(=O)N1c1cccc(-c2ccccc2)c1)NO (stereo not shown) [IX-017] | 97%
24 | O=C(CC1c2ccccc2S(=O)(=O)N1c1ccc(C(F)(F)F)cc1)NO (stereo not shown) [IX-019] | 55%
25 | CC(C)c1ccc(N2C(CC(=O)NO)c3ccccc3S2(=O)=O)cc1 (stereo not shown) [IX-024] | 50%
26 | O=C(CC1c2ccccc2S(=O)(=O)N1c1ccc(-n2cncn2)cc1)NO (stereo not shown) [IX-030] | 54%
27 | O=C(CC1c2ccccc2S(=O)(=O)N1c1ccc(-c2cnco2)cc1)NO (stereo not shown) [IX-031] | 70%
28 | O=C(CC1c2ccccc2S(=O)(=O)N1c1ccc(N2CCOCC2)cc1)NO (stereo not shown) [IX-034] | 36%
29 | O=C(CC1NS(=O)(=O)c2ccccc21)NO (stereo not shown) [IX-039] | 28%
30 | CN1C(CC(=O)NO)c2ccccc2S1(=O)=O (stereo not shown) [IX-040] | 28%
31 | CN(C)CCOc1ccc(N2C(CC(=O)NO)c3ccccc3S2(=O)=O)cc1 (stereo not shown) [IX-051] | 81%
32 | O=C(CC1c2ccccc2S(=O)(=O)N1c1ccc(OCCN2CCOCC2)cc1)NO (stereo not shown) [IX-052] | 53%
33 | O=C(CC1c2ccccc2S(=O)(=O)N1c1cccc(CO)c1)NO (stereo not shown) [IX-075] | 64%
34 | O=C(CCC1c2ccccc2S(=O)(=O)N1c1ccccc1)NO (stereo not shown) [IX-094] | 26%
35 | O=C(NO)C1c2ccccc2S(=O)(=O)N1c1ccccc1 (stereo not shown) [IX-095] | 38%
36 | O=C(NO)C1c2c(Cl)cccc2S(=O)(=O)N1c1ccccc1 (stereo not shown) [IX-096] | 27%
37 | O=C(O)CC1c2ccccc2S(=O)(=O)N1c1ccccc1 (stereo not shown) [IX-099] | 9%
38 | CC#CCOc1ccc(N2C(CC(=O)O)c3ccccc3S2(=O)=O)cc1 (stereo not shown) [IX-100] | 50%

System: HDAC (HeLa cell extract)
Assay: Selectivity assay: HDAC activity, fluorescent assay (Fluor de Lys)
Type: biochemical
Conditions: 15 μM acetylated substrate, 1 hour at 37° C., read-out: Av. HDAC Inhibition EC50
Description: Alternatively, the activity of the compounds as HDAC inhibitors was determined using a commercially available fluorescent assay kit (Fluor de Lys™, BioMol Research Labs, Inc., Plymouth Meeting, USA). HeLa extract was incubated for 1 hour at 37° C. in assay buffer (25 mM HEPES, 137 mM NaCl, 2.7 mM KCl, 1 mM MgCl2, pH 8.0) with 15 μM acetylated substrate in the presence of test compound (HDAC inhibitor). The extent of deacetylation was determined by the addition of 50 μL of a 1-in-500 dilution of Developer, and subsequent measurement of the fluorescence (excitation 355 nm, emission 460 nm), according to the instructions provided with the kit.
The HeLa cell extract was made from HeLa cells (ATCC Ref. No. CCL-2) by freeze-thawing three times in 60 mM Tris.HCl, pH 8.0, 450 mM NaCl, 30% glycerol. Two cell volumes of extraction buffer were used, and particulate material was centrifuged out (20,800 g, 4° C., 10 minutes). The supernatant extract having deacetylase activity was aliquoted and frozen for storage.
as §1, §2, §3

Row | Structure (SMILES) | EC50
39 | CCOc1ccc2c(c1)C(CC(=O)NO)N(c1ccccc1)S2(=O)=O (stereo not shown) [IX-078] | 23.7 µM

Same assay, conditions: single concentration @100 (μM)

Row | Structure (SMILES) | Av. HDAC Inhibition, % @100
40 | O=C(C[C@H]1c2ccccc2S(=O)(=O)N1c1ccccc1)NO [IX-002] | 43%@100
41 | O=C(C[C@@H]1c2ccccc2S(=O)(=O)N1c1ccccc1)NO [IX-003] | 44%@100
42 | O=C(CC1c2ccccc2S(=O)(=O)N1c1ccc2ccccc2c1)NO (stereo not shown) [IX-004] | 32%@100
43 | COc1cccc(N2C(CC(=O)NO)c3ccccc3S2(=O)=O)c1 (stereo not shown) [IX-009] | 24%@100
44 | COc1ccc(N2C(CC(=O)NO)c3ccccc3S2(=O)=O)cc1 (stereo not shown) [IX-010] | 17%@100
45 | O=C(CC1c2ccccc2S(=O)(=O)N1c1ccc(Cl)cc1)NO (stereo not shown) [IX-012] | 11%@100
46 | O=C(CC1c2ccccc2S(=O)(=O)N1c1ccc(OC(F)(F)F)cc1)NO (stereo not shown) [IX-020] | −2%@100
47 | CCCCOc1ccc(N2C(CC(=O)NO)c3ccccc3S2(=O)=O)cc1 (stereo not shown) [IX-036] | −4%@100
48 | COc1ccc2c(c1)C(CC(=O)NO)N(c1ccccc1)S2(=O)=O (stereo not shown) [IX-068] | 44%@100
49 | O=C(CC1c2ccccc2S(=O)(=O)N1c1cccc(CO)c1)NO (stereo not shown) [IX-075] | 2%@100
50 | O=C(C[C@@H]1c2ccccc2S(=O)(=O)[C@H]1c1ccccc1)NO [IX-097] | 20%@100

System: not given
Assay: not given
Conditions: not given

Row | Structure (SMILES) | melting point
51 | O=C(CC1c2ccccc2S(=O)(=O)N1c1ccc(OCc2ccnc3ccccc23)cc1)NO (stereo not shown) [Compound (5.57), 2-{1,1-Dioxo-2-[4-(quinolin-4-ylmethoxy)phenyl]-2,3-dihydro-1H-benzo[d]isothiazol-3-yl}-N-hydroxyacetamide] | 218 to 220 °C (dec.)
52 | Cc1cc(COc2ccc(N3C(CC(=O)NO)c4ccccc4S3(=O)=O)cc2)c2cc(F)ccc2n1 (stereo not shown) [Compound (5.58), 2-{2-[4-(6-Fluoro-2-methyl-quinolin-4-ylmethoxy)-phenyl]-1,1-dioxo-2,3-dihydro-1H-benzo[d]isothiazol-3-yl}-N-hydroxyacetamide] | > 140 °C (dec.)
53 | Cc1cc(COc2ccc(N3C(CC(=O)NO)c4ccccc4S3(=O)=O)cc2)c2cc(Cl)ccc2n1 (stereo not shown) [Compound (5.59), 2-{2-[4-(6-Chloro-2-methylquinolin-4-ylmethoxy)-phenyl]-1,1-dioxo-2,3-dihydro-1H-benzo[d]isothiazol-3-yl}-N-hydroxyacetamide] | > 215 °C (dec.)
54 | Cc1cc(COc2ccc(N3C(CC(=O)NO)c4ccccc4S3(=O)=O)cc2)ccn1 (stereo not shown) [Compound (5.60), 2-{2-[4-(2-Methyl-pyridin-4-ylmethoxy)-phenyl]-1,1-dioxo-2,3-dihydro-1H-benzo[d]isothiazol-3-yl}-N-hydroxyacetamide] | > 204 °C (dec.)
55 | Cc1cc(COc2ccc(N3C(CC(=O)NO)c4ccccc4S3(=O)=O)cc2)cc(C)n1 (stereo not shown) [Compound (5.61), 2-{2-[4-(2,6-Dimethyl-pyridin-4-ylmethoxy)phenyl]-1,1-dioxo-2,3-dihydro-1H-benzo[d]isothiazol-3-yl}-N-hydroxyacetamide] | > 210 °C (dec.)
56 | COc1ccc2c(c1)C(CC(=O)NO)N(c1ccccc1)S2(=O)=O (stereo not shown) [Compound (5.62), 2-(5-Methoxy-1,1-dioxo-2-phenyl-2,3-dihydro-1H-benzo[d]isothiazol-3-yl)-N-hydroxyacetamide] | 180 to 182 °C
57 | O=C(CC1c2cc3c(cc2S(=O)(=O)N1c1ccccc1)OCCO3)NO (stereo not shown) [Compound (5.63), 2-(1,1-Dioxo-2-phenyl-2,3,6,7-tetrahydro-1H-5,8-dioxa-thia-2-aza-cyclopenta[b]naphthalen-3-yl)-N-hydroxyacetamide] | 202 to 204 °C (dec.)
58 | COc1cc2c(cc1OC)S(=O)(=O)N(c1ccccc1)C2CC(=O)NO (stereo not shown) [Compound (5.64), 2-(5,6-Dimethoxy-1,1-dioxo-2-phenyl-2,3-dihydro-1H-benzo[d]isothiazol-3-yl)-N-hydroxyacetamide] | 197 to 199 °C (dec.)
59 | O=C(CC1c2ccc(Br)cc2S(=O)(=O)N1c1ccccc1)NO (stereo not shown) [Compound (5.68), 2-(6-Bromo-1,1-dioxo-2-phenyl-2,3-dihydro-1H-benzo[d]isothiazol-3-yl)-N-hydroxyacetamide] | 182 to 183 °C
60 | O=C(O)CC1c2ccccc2S(=O)(=O)N1c1ccccc1 (stereo not shown) [IX-099] | 178 to 179 °C (dec.)
61 | CC#CCOc1ccc(N2C(CC(=O)O)c3ccccc3S2(=O)=O)cc1 (stereo not shown) [IX-100] | 160 to 161 °C
